Source: patent US6472227B1, “Barbiturate assay, tracers, immunogens, antibodies and kit” (Abbott Laboratories, priority 1986, dated 2002)

Assays:
Type in all cases: binding, sheep
[1] = tested on: antibodies raised against an immunogen having the structure shown in FIG. 29; assay: Fluorescence polarization immunoassay cross-reactivity, tracer of FIG. 31; settings: Conc. Added 1200 ng/mL; tracer FIG. 31
Procedure: (§1) The antibodies of the present invention are prepared by eliciting a response in sheep to the immunogens described supra. The immunogen is administered to animals or to in vitro cultures of immunocompetent cells by a series of innoculations, in a manner well known to those skilled in the art.

[2] = tested on: antibodies raised against an immunogen having the structure shown in FIG. 29; assay: Fluorescence polarization immunoassay cross-reactivity in drug-free normal human urine, tracer of FIG. 30; settings: for % CR / Conc. Found: Conc. Added 1200 ng/mL, tracer FIG. 30; for amount of the test compound found in the resulting human urine: 200 ng/mL added to drug-free urine, secobarbital standard
Procedure: as §1
(§2) The tracer formulation presently preferred is 150 nanomolar tracer in: 0.1 molar phosphate buffer at pH 6.2; 5% sodium 5-sulfosalicylate; 0.1% sodium azide; and 0.01% bovine gamma-globulin. The antiserum formulation comprises sheep serum diluted with: 0.1 molar tris buffer at pH 7.5; 0.1% sodium azide; 0.1% bovine gamma-globulin; and 2% ethylene glycol (volume/volume). The dilution buffer comprises: 0.1 molar sodium phosphate at pH 7.5; 0.1% sodium azide; and 0.01% bovine gamma-globulin. The pretreatment solution comprises: 0.01% bovine gamma-globulin; 0.1 molar tris buffer at pH 7.5; 0.1% sodium azide; and 10 mg/mL riboflavin binding protein.
(§3) A minimum of fifty microliters of urine is required. The calibrators, controls, or unknown samples are pipetted directly into the sample well of the TDx® or ADx® sample cartridge. […] The assay procedure from this point is fully automated.
(§4) If a manual assay is being performed, then the sample is mixed with the pretreatment solution in dilution buffer and a background reading is taken. The tracer and antibody are then mixed into the test solution. After incubation, a fluorescence polarization reading is taken.
(§5) The net fluorescence polarization value of each calibrator, control or sample is determined and is printed on the output tape of an instrument such as the Abbott TDx® Analyzer. […] The concentration of each control or sample is read off the stored calibration curve and printed on the output tape.
Cross-reactivity was tested by the method of the present invention for the commonly-used barbiturates. In each case, compounds were assayed on the Abbott Laboratories+ TDx® Clinical Analyzer or the ADx® Drugs of Abuse System after adding a known quantity (200 ng/mL) of the barbiturate test compound to drug-free normal human urine.
(§6) The five columns in Tables 4(a) and 4(b) indicate the same information as is described above for Table 3(a).

[3] = tested on: antibodies raised against an immunogen having the structure shown in FIG. 28; assay: Fluorescence polarization immunoassay cross-reactivity in drug-free normal human urine, tracer of FIG. 5; settings: for factor which overestimates or underestimates the compound assayed for / percent cross reactivity: 200 ng/mL added; for amount of the test compound found in the resulting human urine: 200 ng/mL added to drug-free urine, secobarbital standard
Procedure: as §1, §2, §3, §4, §5
Cross-reactivity was tested by the method of the present invention for the commonly-used barbiturates. […]
The five columns indicate the following information:
In other words, when 200 ng of secobarbital were added to drug-free normal human urine, approximately 200 ng of secobarbital were detected in the resulting urine sample. Thus, the closer the factor is to 1.0, the more accurate the assay is with respect to the particular test compound analyzed.
The percent cross-reactivity value presented in column five was obtained by the following mathematical formula: [formula]
as §6

Structure (SMILES) | % CR [1] [%] | % CR [2] [%] | Conc. Found [2] [ng/mL] | amount of the test compound found ([2]; 1 μg/mL added) | amount of the test compound found ([2]; 10 μg/mL added) [ng/mL] | factor ([2]; 10 μg/mL added) | percent cross reactivity ([2]; 10 μg/mL added) [%] | amount of the test compound found ([2]; 100 μg/mL added) [ng/mL] | factor ([2]; 100 μg/mL added) | percent cross reactivity ([2]; 100 μg/mL added) [%] | Conc. Found [1] [ng/mL] | factor which overestimates or underestimates the compound assayed for [3] | percent cross reactivity [3] [%] | amount of the test compound found in the resulting human urine [3] [ng/mL] | factor which overestimates or underestimates the compound assayed for ([2]; 200 ng/mL added) | percent cross reactivity ([2]; 200 ng/mL added) [%] | amount of the test compound found in the resulting human urine [2] [ng/mL]
C=CCC1(c2ccccc2)C(=O)NC(=O)NC1=O [Alphenal] | >167 | 94 | 1130 |  |  |  |  |  |  |  |  |  |  |  |  |  | 
CCC1(c2ccc(N)cc2)CCC(=O)NC1=O (centres unmarked) [Aminoglutethimide] |  |  |  | ND (None detected: Concentration less than the sensitivity of the assay (60 ng/mL)) | 117 | 0.00117 | 1.17 | 412 | 0.00041 | 0.41 |  |  |  |  |  |  | 
CCC1(CCC(C)C)C(=O)NC(=O)NC1=O [Amobarbital] | 73 | 41 | 490 |  |  |  |  |  |  |  | 870 | 1.55 | 155 | 310 | 0.43 | 43 | 85
C=CCC1(C(C)C)C(=O)NC(=O)NC1=O [Aprobarbital] | 139 | 77 | 920 |  |  |  |  |  |  |  | 1670 |  |  |  | 0.62 | 62 | 123
C=CCC1(CC(=C)Br)C(=O)NC(=O)NC1=O [Brallobarbital] | 159 | 117 | 1400 |  |  |  |  |  |  |  | 1910 |  |  |  | 0.94 | 94 | 188
CCC(C)C1(CC)C(=O)NC(=O)NC1=O (centres unmarked) [Butabarbital] | >167 | >167 |  |  |  |  |  |  |  |  |  |  |  |  | 2.24 | 224 | 489
C=CCC1(CC(C)C)C(=O)NC(=O)NC1=O [Butalbital] | >167 | 167 | 2000 |  |  |  |  |  |  |  |  | 1.00 | 100 | 201 | 1.13 | 113 | 227
C=CCC1(C2C=CCC2)C(=O)NC(=O)NC1=O (centres unmarked) [Cyclopentobarbital] | >167 | >167 |  |  |  |  |  |  |  |  |  |  |  |  |  |  | 
